Measurements from patent US10479780B2, “Aminopyrazole derivatives” (Chugai Seiyaku Kabushiki Kaisha, priority 2015, dated 2019).
Like-named read-outs stand apart in the source and are kept apart here.

What was measured:
Type in all cases: biochemical
human Lck enzyme = target: T1, human Lck enzyme (Homo sapiens, UniProt P06239); assay: Lck enzyme inhibitory activity (time-resolved fluorometry, biotinylated peptide phosphorylation); conditions: read-out: LCK_IC50
T1 construct: purchased Carna Biosciences, Inc. 08-170
T1 sequence (P06239 whole entry): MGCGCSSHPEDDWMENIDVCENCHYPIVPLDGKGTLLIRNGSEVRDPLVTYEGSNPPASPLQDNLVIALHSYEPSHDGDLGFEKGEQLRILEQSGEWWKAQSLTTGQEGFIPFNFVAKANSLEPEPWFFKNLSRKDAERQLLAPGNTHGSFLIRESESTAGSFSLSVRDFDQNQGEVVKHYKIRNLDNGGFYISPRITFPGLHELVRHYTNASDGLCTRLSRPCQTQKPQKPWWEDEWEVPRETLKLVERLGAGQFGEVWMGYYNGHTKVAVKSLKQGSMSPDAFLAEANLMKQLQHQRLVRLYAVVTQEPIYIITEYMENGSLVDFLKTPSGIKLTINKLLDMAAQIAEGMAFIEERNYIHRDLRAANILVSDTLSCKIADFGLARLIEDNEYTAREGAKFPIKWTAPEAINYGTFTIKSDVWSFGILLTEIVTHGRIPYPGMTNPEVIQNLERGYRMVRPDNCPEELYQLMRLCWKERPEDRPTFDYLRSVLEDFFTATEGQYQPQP
Method in brief: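 Readout pairs a europium cryptate-labelled anti-phosphotyrosine antibody with XL665-streptavidin, measured by time-resolved fluorescence. IC50 derived from percent inhibition against untreated controls.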

human Yes1 enzyme = target: T2, human Yes1 enzyme (Homo sapiens, UniProt P07947); assay: Yes1 enzyme inhibitory activity (time-resolved fluorometry, biotinylated peptide phosphorylation); conditions: read-out: YES_IC50
T2 construct: made in house
T2 sequence (P07947 whole entry): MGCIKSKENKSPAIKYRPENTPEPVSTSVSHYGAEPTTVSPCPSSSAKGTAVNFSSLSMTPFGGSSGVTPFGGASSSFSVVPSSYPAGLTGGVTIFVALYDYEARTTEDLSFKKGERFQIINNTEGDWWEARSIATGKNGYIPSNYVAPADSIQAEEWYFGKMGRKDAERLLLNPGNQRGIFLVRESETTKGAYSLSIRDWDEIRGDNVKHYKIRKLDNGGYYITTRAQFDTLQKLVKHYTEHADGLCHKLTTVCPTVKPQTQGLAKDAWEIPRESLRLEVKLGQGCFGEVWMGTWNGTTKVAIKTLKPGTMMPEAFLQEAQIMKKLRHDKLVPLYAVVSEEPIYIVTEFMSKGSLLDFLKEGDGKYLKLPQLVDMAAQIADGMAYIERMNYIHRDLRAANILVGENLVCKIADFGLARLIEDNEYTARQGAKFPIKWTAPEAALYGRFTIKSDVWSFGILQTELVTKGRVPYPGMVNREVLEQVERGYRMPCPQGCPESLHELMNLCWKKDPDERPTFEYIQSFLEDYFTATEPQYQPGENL
Method in brief: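 Inhibition was expressed against a compound-free control to give IC50, using TR-FRET read-out (Eu-cryptate anti-pTyr antibody, streptavidin-XL665).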

human Src enzyme = target: T3, human Src enzyme (Homo sapiens, UniProt P12931); assay: Src enzyme inhibitory activity (time-resolved fluorometry, biotinylated peptide phosphorylation); conditions: read-out: SRC_IC50
T3 construct: purchased Carna Biosciences, Inc. 08-173
T3 sequence (P12931 whole entry): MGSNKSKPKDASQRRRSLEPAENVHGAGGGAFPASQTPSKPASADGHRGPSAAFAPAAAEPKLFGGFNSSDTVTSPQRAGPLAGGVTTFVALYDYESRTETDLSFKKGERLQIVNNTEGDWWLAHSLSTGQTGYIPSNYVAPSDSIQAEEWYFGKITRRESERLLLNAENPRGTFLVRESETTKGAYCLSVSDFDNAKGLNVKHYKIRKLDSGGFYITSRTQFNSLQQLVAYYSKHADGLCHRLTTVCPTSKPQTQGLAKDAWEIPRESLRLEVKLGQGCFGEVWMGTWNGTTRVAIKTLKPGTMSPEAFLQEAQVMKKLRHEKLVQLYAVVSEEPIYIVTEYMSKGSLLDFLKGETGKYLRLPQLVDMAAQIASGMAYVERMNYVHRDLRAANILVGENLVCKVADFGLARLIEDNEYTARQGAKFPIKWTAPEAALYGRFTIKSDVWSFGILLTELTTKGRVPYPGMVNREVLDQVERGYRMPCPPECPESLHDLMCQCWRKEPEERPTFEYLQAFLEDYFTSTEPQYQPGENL
Method in brief: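 Compounds were tested for blocking tyrosine phosphorylation of a biotinylated peptide substrate by recombinant human Src. Phosphorylated product was quantified by time-resolved fluorometry using europium cryptate and XL665 conjugates, and IC50 was calculated against the compound-free control.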

[1] = biotinylated peptide phosphorylation

In the case of Cc1cc2cc(C(=O)c3cnn(-c4cnc(Oc5c(F)cccc5F)cc4C)c3N)[nH]c2cc1N1C(=O)NC2(CCOCC2)C1=O [Example 5-1-342, 3-[2-[5-amino-1-[6-(2,6-difluorophenoxy)-4-methylpyridin-3-yl]pyrazole-4-carbonyl]-5-methyl-1H-indol-6-yl]-8-oxa-1,3-diazaspiro[4.5] decane-2,4-dione], the IC50 (human Lck enzyme) is reported as 5.3 nM, the IC50 (human Yes1 enzyme) is reported as 1.7 nM and the IC50 (human Src enzyme) is reported as 48 nM.

Cc1cc(Oc2ccccc2F)ccc1-n1ncc(C(=O)c2cc3cc(OC4CCN(C(C)C)CC4)c(F)cc3[nH]2)c1N [Example 5-1-203, [5-amino-1-[4-(2-fluorophenoxy)-2-methylphenyl]pyrazol-4-yl]-[6-fluoro-5-(1-propan-2-ylpiperidin-4-yl)oxy-1H-indol-2-yl]methanone] showed an IC50 (human Lck enzyme) of 6.2 nM, an IC50 (human Yes1 enzyme) of 0.36 nM and an IC50 (human Src enzyme) of 7 nM.

In the case of Cc1cc(Oc2c(F)cccc2F)ncc1-n1ncc(C(=O)c2cc3cc(OC4CCN(C5CCCC5)CC4)c(-c4ccccc4F)cc3[nH]2)c1N [Example 5-1-310, [5-amino-1-[6-(2,6-difluorophenoxy)-4-methylpyridin-3-yl]pyrazol-4-yl]-[5-(1-cyclopentylpiperidin-4-yl)oxy-6-(2-fluorophenyl)-1H-indol-2-yl]methanone], the IC50 (human Lck enzyme) is reported as 22 nM, the IC50 (human Yes1 enzyme) is reported as 3.4 nM and the IC50 (human Src enzyme) is reported as 38 nM.

In the case of Cc1cc(Oc2ccccc2Cl)ncc1-n1ncc(C(=O)c2cc3cc(F)c(NS(C)(=O)=O)cc3[nH]2)c1N [Example 4-2-033, N-[2-[5-amino-1-[6-(2-chlorophenoxy)-4-methylpyridin-3-yl]pyrazole-4-carbonyl]-5-fluoro-1H-indol-6-yl]methanesulfonamide], the IC50 (human Lck enzyme; [1]) is reported as 19 nM, the IC50 (human Yes1 enzyme; [1]) is reported as 0.91 nM and the IC50 (human Src enzyme; [1]) is reported as 49 nM.

For Cc1cc(Oc2ccccc2F)ccc1-n1ncc(C(=O)c2cc3cc(OCC(F)F)c(N4C(=O)[C@@H]5C[C@H](NS(=O)(=O)CCCF)CN5C4=O)cc3[nH]2)c1N [Example 5-1-255, N-[(6S,7aS)-2-[2-[5-amino-1-[4-(2-fluorophenoxy)-2-methylphenyl]pyrazole-4-carbonyl]-5-(2,2-difluoroethoxy)-1H-indol-6-yl]-1,3-dioxo-5,6,7,7a-tetrahydropyrrolo[1,2-c]imidazol-6-yl]-3-fluoropropane-1-sulfonamide], the IC50 (human Lck enzyme) was 4.5 nM, the IC50 (human Yes1 enzyme) was 1.1 nM and the IC50 (human Src enzyme) was 8.9 nM.

COc1cc2[nH]c(C(=O)c3cnn(-c4ccc(Oc5ccccc5F)cc4C)c3N)cc2cc1NS(C)(=O)=O [Example 4-1-013, N-[2-[5-amino-1-[4-(2-fluorophenoxy)-2-methylphenyl]pyrazole-4-carbonyl]-6-methoxy-1H-indol-5-yl]methanesulfonamide] was tested, and the IC50 (human Lck enzyme; [1]) was 1.3 nM, the IC50 (human Yes1 enzyme; [1]) was 0.45 nM and the IC50 (human Src enzyme; [1]) was 2.6 nM.

Compound Cc1cc(Oc2ccccc2F)ncc1-n1ncc(C(=O)c2cc3cc(OCC(F)F)c(NS(=O)(=O)C4CC4)cc3[nH]2)c1N [Example 4-24-027, N-[2-[5-amino-1-[6-(2-fluorophenoxy)-4-methylpyridin-3-yl]pyrazole-4-carbonyl]-5-(2,2-difluoroethoxy)-1H-indol-6-yl]cyclopropanesulfonamide] has an IC50 (human Lck enzyme; [1]) of 55 nM, an IC50 (human Yes1 enzyme; [1]) of 3.2 nM and an IC50 (human Src enzyme; [1]) of 140 nM.

Work on Cc1cc2cc(C(=O)c3cnn(-c4c(C)cc(Oc5ccccc5F)cc4F)c3N)[nH]c2cc1C1CCN(S(C)(=O)=O)CC1 [Example 5-1-111, [5-amino-1-[2-fluoro-4-(2-fluorophenoxy)-6-methylphenyl]pyrazol-4-yl]-[5-methyl-6-(1-methylsulfonylpiperidin-4-yl)-1H-indol-2-yl] methanone] yielded an IC50 (human Lck enzyme) of 14 nM, an IC50 (human Yes1 enzyme) of 14 nM and an IC50 (human Src enzyme) of 46 nM.

Cc1cc(Oc2c(F)cccc2F)ncc1-n1ncc(C(=O)c2cc3cc(OCC(F)F)c(N4CCOCC4)cc3[nH]2)c1N [Example 4-1-016, [5-amino-1-[6-(2,6-difluorophenoxy)-4-methylpyridin-3-yl]pyrazol-4-yl]-[5-(2,2-difluoroethoxy)-6-morpholin-4-yl-1H-indol-2-yl]methanone] gave an IC50 (human Lck enzyme; [1]) of 7.5 nM, an IC50 (human Yes1 enzyme; [1]) of 2.1 nM and an IC50 (human Src enzyme; [1]) of 14 nM.

Compound Cc1cc(Oc2ccccc2F)ncc1-n1ncc(C(=O)c2cc3cc(OCC(F)F)c(NS(=O)(=O)c4cccc(Cl)c4)cc3[nH]2)c1N [Example 5-1-424, N-[2-[5-amino-1-[6-(2-fluorophenoxy)-4-methylpyridin-3-yl]pyrazole-4-carbonyl]-5-(2,2-difluoroethoxy)-1H-indol-6-yl]-3-chlorobenzenesulfonamide] has an IC50 (human Lck enzyme; [1]) of 200 nM, an IC50 (human Yes1 enzyme; [1]) of 5.6 nM and an IC50 (human Src enzyme; [1]) of 480 nM.

Work on Cc1cc(Oc2ccccc2F)ccc1-n1ncc(C(=O)c2cc3cc(C4CCN(C(C)C)CC4)c(F)cc3[nH]2)c1N [Example 4-2-001, [5-amino-1-[4-(2-fluorophenoxy)-2-methylphenyl]pyrazol-4-yl]-[6-fluoro-5-(1-propan-2-ylpiperidin-4-yl)-1H-indol-2-yl]methanone] yielded an IC50 (human Lck enzyme; [1]) of 3.1 nM, an IC50 (human Yes1 enzyme; [1]) of 1 nM and an IC50 (human Src enzyme; [1]) of 4.1 nM.

Cc1cc(Oc2c(F)cccc2F)ncc1-n1ncc(C(=O)c2cc3cc(OCC(F)F)c(C4CCN(S(C)(=O)=O)CC4)cc3[nH]2)c1N [Example 4-17-023, [5-amino-1-[6-(2,6-difluorophenoxy)-4-methylpyridin-3-yl]pyrazol-4-yl]-[5-(2,2-difluoroethoxy)-6-(1-methylsulfonylpiperidin-4-yl)-1H-indol-2-yl]methanone] showed an IC50 (human Lck enzyme; [1]) of 21 nM, an IC50 (human Yes1 enzyme; [1]) of 6.8 nM and an IC50 (human Src enzyme; [1]) of 27 nM.

Compound Cc1cc(Oc2ccccc2F)ncc1-n1ncc(C(=O)c2cc3cc(OCC(F)F)c(C4CCN(S(=O)(=O)C5CC5)CC4)cc3[nH]2)c1N [Example 4-17-022, [5-amino-1-[6-(2-fluorophenoxy)-4-methylpyridin-3-yl]pyrazol-4-yl]-[6-(1-cyclopropylsulfonylpiperidin-4-yl)-5-(2,2-difluoroethoxy)-1H-indol-2-yl]methanone] has an IC50 (human Lck enzyme; [1]) of 8 nM, an IC50 (human Yes1 enzyme; [1]) of 1.3 nM and an IC50 (human Src enzyme; [1]) of 14 nM.

Compound Cc1cc(Oc2ccccc2F)ccc1-n1ncc(C(=O)c2cc3cc(F)c(NS(=O)(=O)c4cncc(F)c4)cc3[nH]2)c1N [Example 5-1-547, N-[2-[5-amino-1-[4-(2-fluorophenoxy)-2-methylphenyl]pyrazole-4-carbonyl]-5-fluoro-1H-indol-6-yl]-5-fluoropyridine-3-sulfonamide] has an IC50 (human Lck enzyme; [1]) of 30 nM, an IC50 (human Yes1 enzyme; [1]) of 2.9 nM and an IC50 (human Src enzyme; [1]) of 350 nM.

For Cc1cc(Oc2ccccc2F)ccc1-n1ncc(C(=O)c2cc3cc(OCCN4C[C@@H]5C[C@H]4CN5S(C)(=O)=O)c(NS(C)(=O)=O)cc3[nH]2)c1N [Example 4-24-038, N-[2-[5-amino-1-[4-(2-fluorophenoxy)-2-methylphenyl]pyrazole-4-carbonyl]-5-[2-[(1S,4S)-2-methylsulfonyl-2,5-diazabicyclo[2.2.1]heptan-5-yl]ethoxy]-1H-indol-6-yl]methanesulfonamide], the IC50 (human Lck enzyme; [1]) was 2.9 nM, the IC50 (human Yes1 enzyme; [1]) was 0.55 nM and the IC50 (human Src enzyme; [1]) was 6.9 nM.

Cc1cc(Oc2cc(F)ccc2F)cc(F)c1-n1ncc(C(=O)c2cc3cc(F)c(NS(=O)(=O)C4CC4)cc3[nH]2)c1N [Example 4-7-008, N-[2-[5-amino-1-[4-(2,5-difluorophenoxy)-2-fluoro-6-methylphenyl]pyrazole-4-carbonyl]-5-fluoro-1H-indol-6-yl]cyclopropanesulfonamide] was tested, and the IC50 (human Lck enzyme; [1]) was 140 nM, the IC50 (human Yes1 enzyme; [1]) was 5.9 nM and the IC50 (human Src enzyme; [1]) was 490 nM.

Cc1cc(Oc2cccc(F)c2F)ccc1-n1ncc(C(=O)c2cc3cc(Cl)c(NS(C)(=O)=O)cc3[nH]2)c1N [Example 4-2-078, N-[2-[5-amino-1-[4-(2,3-difluorophenoxy)-2-methylphenyl]pyrazole-4-carbonyl]-5-chloro-1H-indol-6-yl]methanesulfonamide] gave an IC50 (human Lck enzyme; [1]) of 50 nM, an IC50 (human Yes1 enzyme; [1]) of 5.9 nM and an IC50 (human Src enzyme; [1]) of 91 nM.

In the case of Cc1cc(Oc2c(F)cccc2F)ncc1-n1ncc(C(=O)c2cc3cc(F)c(NS(=O)(=O)c4c(F)cc(F)cc4F)cc3[nH]2)c1N [Example 5-1-567, N-[2-[5-amino-1-[6-(2,6-difluorophenoxy)-4-methylpyridin-3-yl]pyrazole-4-carbonyl]-5-fluoro-1H-indol-6-yl]-2,4,6-trifluorobenzenesulfonamide], the IC50 (human Lck enzyme; [1]) is reported as 610 nM, the IC50 (human Yes1 enzyme; [1]) is reported as 19 nM and the IC50 (human Src enzyme; [1]) is reported as 1200 nM.

Cc1cc(-n2ncc(C(=O)c3cc4cc(OC5CCN(C6COC6)CC5)c(Br)cc4[nH]3)c2N)ccc1Oc1ccccc1F [Example 5-1-220, (5-amino-1-(4-(2-fluorophenoxy)-3-methylphenyl)-1H-pyrazol-4-yl)(6-bromo-5-((1-(oxetan-3-yl)piperidin-4-yl)oxy)-1H-indol-2-yl)methanone] was tested, and the IC50 (human Lck enzyme) was 56 nM, the IC50 (human Yes1 enzyme) was 1.5 nM and the IC50 (human Src enzyme) was 180 nM.

Compound Cc1cc2cc(C(=O)c3cnn(-c4cnc(Oc5ccccc5C)cc4C)c3N)[nH]c2cc1NS(C)(=O)=O [Example 4-2-065, N-[2-[5-amino-1-[4-methyl-6-(2-methylphenoxy)pyridin-3-yl]pyrazole-4-carbonyl]-5-methyl-1H-indol-6-yl]methanesulfonamide] has an IC50 (human Lck enzyme; [1]) of 18 nM, an IC50 (human Yes1 enzyme; [1]) of 2.2 nM and an IC50 (human Src enzyme; [1]) of 44 nM.

Cc1cccc(S(=O)(=O)Nc2cc3[nH]c(C(=O)c4cnn(-c5cnc(Oc6ccccc6F)cc5C)c4N)cc3cc2C)n1 [Example 5-1-507, N-[2-[5-amino-1-[6-(2-fluorophenoxy)-4-methylpyridin-3-yl]pyrazole-4-carbonyl]-5-methyl-1H-indol-6-yl]-6-methylpyridine-2-sulfonamide] showed an IC50 (human Lck enzyme; [1]) of 92 nM, an IC50 (human Yes1 enzyme; [1]) of 2.8 nM and an IC50 (human Src enzyme; [1]) of 480 nM.
